The target in assay [1] is T1, human type II PLA₂ (Homo sapiens, UniProt P14555).
T1 construct: made in house; host or cells: Sf9 insect cells, baculovirus (AcNPV), vector pAcTJI1; purified from culture supernatant
T1 sequence (P14555 21-144): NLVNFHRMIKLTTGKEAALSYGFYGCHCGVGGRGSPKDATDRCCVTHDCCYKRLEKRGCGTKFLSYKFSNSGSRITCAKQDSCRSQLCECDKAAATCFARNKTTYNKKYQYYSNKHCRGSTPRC
Description: Enzyme inhibition of human type II PLA₂ in the presence of heparin, radiolabeled synthetic phospholipid (method of Dole). The note with it: PLA₂ enzyme 200 ng/ml; for inhibition at 5 µg/mL / remaining activity at 5 µg/mL: peptide 5 µg/ml; for inhibition at 10 µg/mL / remaining activity at 10 µg/mL: peptide 10 µg/ml; for inhibition at 50 µg/mL / remaining activity at 50 µg/mL: peptide 50 µg/ml; for inhibition at 100 µg/mL / remaining activity at 100 µg/mL: peptide 100 µg/ml. It is filed as biochemical.

Assay [2] concerns the target T1, human type II PLA₂. Description: Enzyme inhibition of human type II PLA₂ in the presence of heparin, radioactive phospholipid of E. coli origin. It is filed as biochemical. The note with it: heparin 10 µg/ml, PLA₂ enzyme 10 ng/ml.
Setting [3] is: heparin 50 µg/ml, read-out: PLA₂enzyme activity (%).
Setting [4] is: heparin 10 µg/ml, read-out: PLA₂enzyme activity (%).

Positions of bridges follow the written chain, without caps; N, C: chain ends. Residues, ends and D or L forms follow the SMILES beside them. Chains are numbered I, II in the order given. *: point of attachment. Mob = COc1ccc(C*)cc1; Acm = CC(=O)NC*

In general, inhibition refers to how much of the control response was suppressed. As for `COc1ccc(CSC[C@H](NC(=O)CNC(=O)[C@H](CCCNC(=N)N)NC(=O)[C@@H](N)CCCCN)C(=O)NCC(=O)N[C@H](C(=O)N[C@@H](CCCCN)C(=O)N[C@@H](Cc2ccccc2)C(=O)N[C@@H](CC(C)C)C(=O)N[C@@H](CO)C(=O)N[C@@H](Cc2ccc(O)cc2)C(=O)N[C@@H](CCCCN)C(=O)N[C@@H](Cc2ccccc2)C(=O)N[C@@H](CO)C(=O)N[C@@H](CSSC[C@H](NC(=O)[C@H](CO)NC(=O)[C@H](Cc2ccccc2)NC(=O)[C@H](CCCCN)NC(=O)[C@H](Cc2ccc(O)cc2)NC(=O)[C@H](CO)NC(=O)[C@H](CC(C)C)NC(=O)[C@H](Cc2ccccc2)NC(=O)[C@H](CCCCN)NC(=O)[C@@H](NC(=O)CNC(=O)[C@H](CSCc2ccc(OC)cc2)NC(=O)CNC(=O)[C@H](CCCNC(=N)N)NC(=O)[C@@H](N)CCCCN)[C@@H](C)O)C(=O)O)C(=O)O)[C@@H](C)O)cc1` [Peptide (2)] (I: H-KRGC(Mob)GTKFLSYKFSC-OH / II: H-KRGC(Mob)GTKFLSYKFSC-OH; disulfide I:15-II:15), at human type II PLA₂ [1] (heparin 50 µg/ml), the inhibition at 5 µg/mL came to 25%, the inhibition at 10 µg/mL is 52%, the inhibition at 50 µg/mL stood at 81% and the inhibition at 100 µg/mL worked out at 89%. Moreover, on human type II PLA₂ [1] (setting [3]), the remaining activity at 5 µg/mL was found to be 75%, the remaining activity at 10 µg/mL turned out to be 48%, the remaining activity at 50 µg/mL is 19% and the remaining activity at 100 µg/mL is 11%.
On to `CC(=O)NCSC[C@H](NC(=O)CNC(=O)[C@H](CCCNC(=N)N)NC(=O)[C@@H](N)CCCCN)C(=O)NCC(=O)N[C@H](C(=O)N[C@@H](CCCCN)C(=O)N[C@@H](Cc1ccccc1)C(=O)N[C@@H](CC(C)C)C(=O)N[C@@H](CO)C(=O)N[C@@H](Cc1ccc(O)cc1)C(=O)N[C@@H](CCCCN)C(=O)N[C@@H](Cc1ccccc1)C(=O)N[C@@H](CO)C(=O)N[C@@H](CSSC[C@H](NC(=O)[C@H](CO)NC(=O)[C@H](Cc1ccccc1)NC(=O)[C@H](CCCCN)NC(=O)[C@H](Cc1ccc(O)cc1)NC(=O)[C@H](CO)NC(=O)[C@H](CC(C)C)NC(=O)[C@H](Cc1ccccc1)NC(=O)[C@H](CCCCN)NC(=O)[C@@H](NC(=O)CNC(=O)[C@H](CSCNC(C)=O)NC(=O)CNC(=O)[C@H](CCCNC(=N)N)NC(=O)[C@@H](N)CCCCN)[C@@H](C)O)C(=O)O)C(=O)O)[C@@H](C)O` [Peptide (11)] (I: H-KRGC(Acm)GTKFLSYKFSC-OH / II: H-KRGC(Acm)GTKFLSYKFSC-OH; disulfide I:15-II:15), for which, at human type II PLA₂ [1] (heparin 50 µg/ml), the inhibition at 5 µg/mL amounted to 43%, the inhibition at 10 µg/mL was found to be 63%, the inhibition at 50 µg/mL is 78% and the inhibition at 100 µg/mL was determined as 82%. For the same molecule, on human type II PLA₂ [1] (setting [3]), the remaining activity at 5 µg/mL amounted to 57%, the remaining activity at 10 µg/mL was 37%, the remaining activity at 50 µg/mL was 22% and the remaining activity at 100 µg/mL came out at 18%.
Take `CC(=O)NCSC[C@H](NC(=O)[C@H](CO)NC(=O)[C@H](Cc1ccccc1)NC(=O)[C@H](CCCCN)NC(=O)[C@H](Cc1ccc(O)cc1)NC(=O)[C@H](CO)NC(=O)[C@H](CC(C)C)NC(=O)[C@H](Cc1ccccc1)NC(=O)[C@H](CCCCN)NC(=O)[C@@H](NC(=O)CNC(=O)[C@H](CSSC[C@H](NC(=O)CNC(=O)[C@H](CCCNC(=N)N)NC(=O)[C@@H](N)CCCCN)C(=O)NCC(=O)N[C@H](C(=O)N[C@@H](CCCCN)C(=O)N[C@@H](Cc1ccccc1)C(=O)N[C@@H](CC(C)C)C(=O)N[C@@H](CO)C(=O)N[C@@H](Cc1ccc(O)cc1)C(=O)N[C@@H](CCCCN)C(=O)N[C@@H](Cc1ccccc1)C(=O)N[C@@H](CO)C(=O)N[C@@H](CSCNC(C)=O)C(=O)O)[C@@H](C)O)NC(=O)CNC(=O)[C@H](CCCNC(=N)N)NC(=O)[C@@H](N)CCCCN)[C@@H](C)O)C(=O)O` [Peptide (13)] (I: H-KRGCGTKFLSYKFSC(Acm)-OH / II: H-KRGCGTKFLSYKFSC(Acm)-OH; disulfide I:4-II:4): on human type II PLA₂ [1] (heparin 50 µg/ml), the inhibition at 5 µg/mL came out at 42%, the inhibition at 10 µg/mL worked out at 62%, the inhibition at 50 µg/mL came out at 81% and the inhibition at 100 µg/mL is 86%. Also, on human type II PLA₂ [1] (setting [3]), the remaining activity at 5 µg/mL is 58%, the remaining activity at 10 µg/mL was 38%, the remaining activity at 50 µg/mL was 19% and the remaining activity at 100 µg/mL stood at 14%.
On to `CC(C)C[C@@H]1NC(=O)[C@H](Cc2ccccc2)NC(=O)[C@H](CCCCN)NC(=O)[C@H]([C@@H](C)O)NC(=O)CNC(=O)[C@@H](NC(=O)CNC(=O)[C@H](CCCNC(=N)N)NC(=O)[C@@H](N)CCCCN)CSSC[C@H](NC(=O)CNC(=O)[C@H](CCCNC(=N)N)NC(=O)[C@@H](N)CCCCN)C(=O)NCC(=O)N[C@@H]([C@@H](C)O)C(=O)N[C@@H](CCCCN)C(=O)N[C@@H](Cc2ccccc2)C(=O)N[C@@H](CC(C)C)C(=O)N[C@@H](CO)C(=O)N[C@@H](Cc2ccc(O)cc2)C(=O)N[C@@H](CCCCN)C(=O)N[C@@H](Cc2ccccc2)C(=O)N[C@@H](CO)C(=O)N[C@H](C(=O)O)CSSC[C@@H](C(=O)O)NC(=O)[C@H](CO)NC(=O)[C@H](Cc2ccccc2)NC(=O)[C@H](CCCCN)NC(=O)[C@H](Cc2ccc(O)cc2)NC(=O)[C@H](CO)NC1=O` [Peptide (16)] (I: H-KRGCGTKFLSYKFSC-OH / II: H-KRGCGTKFLSYKFSC-OH; disulfide I:4-II:4, I:15-II:15), for which, on human type II PLA₂ [2] (peptide 1 µg/ml), the inhibition at 1 µg/mL is 88% and the remaining activity at 1 µg/mL is 12%. Moreover, at human type II PLA₂ [2] (peptide 5 µg/ml), the inhibition at 5 µg/mL worked out at 97% and the remaining activity at 5 µg/mL came to 3%. At human type II PLA₂ [2] (peptide 10 µg/ml), the inhibition at 10 µg/mL stood at 98% and the remaining activity at 10 µg/mL was determined as 2%. For the same molecule, at human type II PLA₂ [1] (heparin 50 µg/ml), the inhibition at 5 µg/mL was determined as 59%, the inhibition at 10 µg/mL was 72%, the inhibition at 50 µg/mL was found to be 82% and the inhibition at 100 µg/mL was 90%. For the same molecule, on human type II PLA₂ [1] (setting [3]), the remaining activity at 5 µg/mL turned out to be 41%, the remaining activity at 10 µg/mL turned out to be 28%, the remaining activity at 50 µg/mL turned out to be 18% and the remaining activity at 100 µg/mL came to 10%.
For `CC(C)C[C@@H]1NC(=O)[C@H](Cc2ccccc2)NC(=O)[C@H](CCCCN)NC(=O)[C@H]([C@@H](C)O)NC(=O)CNC(=O)[C@@H](NC(=O)CNC(=O)[C@H](CCCNC(=N)N)NC(=O)[C@@H](N)CCCCN)CSSC[C@@H](C(=O)O)NC(=O)[C@H](CO)NC(=O)[C@H](Cc2ccccc2)NC(=O)[C@H](CCCCN)NC(=O)[C@H](Cc2ccc(O)cc2)NC(=O)[C@H](CO)NC(=O)[C@H](CC(C)C)NC(=O)[C@H](Cc2ccccc2)NC(=O)[C@H](CCCCN)NC(=O)[C@H]([C@@H](C)O)NC(=O)CNC(=O)[C@@H](NC(=O)CNC(=O)[C@H](CCCNC(=N)N)NC(=O)[C@@H](N)CCCCN)CSSC[C@@H](C(=O)O)NC(=O)[C@H](CO)NC(=O)[C@H](Cc2ccccc2)NC(=O)[C@H](CCCCN)NC(=O)[C@H](Cc2ccc(O)cc2)NC(=O)[C@H](CO)NC1=O` [Peptide (17)] (I: H-KRGCGTKFLSYKFSC-OH / II: H-KRGCGTKFLSYKFSC-OH; disulfide I:4-II:15, I:15-II:4), the inhibition at 1 µg/mL on human type II PLA₂ [1] (peptide 1 µg/ml, heparin 10 µg/ml) was determined as 69%. The remaining activity at 1 µg/mL at human type II PLA₂ [1] (peptide 1 µg/ml, heparin 10 µg/ml, read-out: PLA₂enzyme activity (%)) was determined as 31%. Besides, on human type II PLA₂ [1] (heparin 10 µg/ml), the inhibition at 5 µg/mL stood at 91% and the inhibition at 10 µg/mL amounted to 94%. Moreover, at human type II PLA₂ [1] (setting [4]), the remaining activity at 5 µg/mL was 9% and the remaining activity at 10 µg/mL is 6%.
